Measured values as given in patent US5770691A, “Discriminatory substrates for MMP hydrolysis” (Regents of the University of Minnesota, priority 1995, dated 1998).
Read-outs that look alike come from different tables or passages of the source. Where a SMILES comes first, the peptide text is derived from it. [ ]: non-standard residue; d: D form. The star is where a group is joined. Dnp = O=[N+]([O-])c1ccc(*)c([N+](=O)[O-])c1; Mca = COc1ccc2c(CC(=O)*)cc(=O)oc2c1; Nva = CCC[C@H](N)C(=O)O

Assays:
[1] = biological target: T1, MMP-3 (Homo sapiens, UniProt P08254); settings: MMP-3 cleavage, cited from earlier work
Target sequence in this assay (P08254 100-477, species assumed): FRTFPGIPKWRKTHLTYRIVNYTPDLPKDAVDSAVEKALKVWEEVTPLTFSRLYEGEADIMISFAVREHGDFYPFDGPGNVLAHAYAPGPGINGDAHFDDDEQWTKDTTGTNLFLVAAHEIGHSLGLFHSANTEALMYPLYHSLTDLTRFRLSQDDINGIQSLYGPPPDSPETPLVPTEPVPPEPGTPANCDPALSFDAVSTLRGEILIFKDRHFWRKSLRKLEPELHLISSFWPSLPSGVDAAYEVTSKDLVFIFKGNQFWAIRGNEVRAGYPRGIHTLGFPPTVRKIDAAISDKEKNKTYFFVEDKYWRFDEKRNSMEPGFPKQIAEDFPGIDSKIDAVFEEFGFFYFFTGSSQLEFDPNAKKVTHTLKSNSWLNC

[2] = biological target: T1, MMP-3; settings: cited from earlier work
Target sequence in this assay (P08254 100-477, species assumed): as above

[3] = biological target: T2, MMP-9 (Homo sapiens, UniProt P14780); test: Fluorometric hydrolysis of synthetic Mca/Lys(Dnp) substrates by MMP-9; format: biochemical; set-up: made in house; host or cells: native secreted protein purified from culture medium of HT-1080 cells
Text: (§1) All MMPs were purified in zymogen form. ProMMP-1 (Suzuki et al., Biochem., 29, 10261 (1990)), proMMP-2 (Okada et al., Eur. J. Biochem., 194, 721 (1990)), and proMMP-3 (Ito et al., Arch. Biochem. Biophys., 267, 211 (1988)) were purified from the culture medium of human rheumatoid synovial cells stimulated with rabbit macrophage-conditioned medium. ProMMP-9 was purified from the culture medium of HT-1080 cells as described in Morodomi et al., Biochem. J., 285, 603 (1992). ProMMP-2 and proMMP-9 were activated by reacting with 1 mM 4-aminophenylmercuric acetate at 37° C. for 45 minutes and 32 hours, respectively. ProMMP-1 was activated by reacting with 1 mM 4-aminophenylmercuric acetate and an equimolar amount of MMP-3 at 37° C. for 6 hours. After activation, MMP-3 was completely removed from MMP-1 by affinity chromatography using an anti-MMP-3 IgG Affi-Gel 10 column. The resin, Affi-Gel 10 (Biorad, Emoryville, Calif.), was coupled to anti-MMP-3 IgG (Okada et al., Annals of Rheumat. Dis., 48, 645 (1989)) per the manufacturer's protocol. Pro-MMP-3 was activated by reacting with 5 μg/mL chymotrypsin at 37° C. for 2 hours. Chymotrypsin was inactivated with 2 mM diisopropylfluorophosphate. The amounts of active MMP-1, MMP-2, and MMP-3 were determined by titration with tissue inhibitor of metalloproteinase-1(TIMP1) over a concentration range of 0.1-3 μg/mL, while the amount of active MMP-9 was determined by titration with TIMP-2 (0.1-3 μg/mL). TIMP-1 was isolated from the medium of HT-1080 cells as described in Morodomi et al., Biochem J., 285, 603 (1992).
(§2) Substrates were prepared as 10 mM stock solutions in dimethylsulfoxide (DMSO). Fluorescent assays were performed at λex =325 nm and λem =393 nm, which should encounter no interference from Trp residues, using a Hitachi fluorescence spectrophotometer F-3010. Initial total hydrolysis assays were run at a substrate concentration of […] to avoid filtering effects. The change in fluorescence at this concentration was 110 based on total hydrolysis of 1 μM substrate. A typical assay was carried out by incubating 100 μL of various concentrations of a substrate with 10 μL of an enzyme solution (2-20 nM) in 50 mM Tris-HCl, pH 7.5, 0.15M NaCl, 10 mM CaCl2, 0.05% Brij 35, 0.02% NaN3. The reaction was stopped by addition of 900 μl of 3% (v/v) glacial acetic acid. MMP-3 activity at pH 6.0 was measured in 50 mM sodium acetate buffer, pH 6.0, instead of Tris-HCl buffer. The amount of substrate hydrolysis was calculated based on the fluorescence values of the Mca-Arg-Pro-Lys-Pro-Gln standard solution after substraction of the reaction blank value (stopping solution added before the enzyme). Individual kinetic parameters (kcat and KM) were determined over a substrate concentration range of 2.5-75 μM and calculated by double reciprocal plots.

[4] = biological target: T1, MMP-3; test: Fluorometric hydrolysis of synthetic Mca/Lys(Dnp) substrates by MMP-3; format: biochemical; set-up: made in house; host or cells: native secreted protein purified from culture medium of human rheumatoid synovial cells; settings: for kcat /Km: MMP-3, 37° C., pH 7.5
Text: as §1, §2
Target sequence in this assay (P08254 100-477): as the sequence (P08254 100-477, species assumed) above

[5] = biological target: T3, MMP-1 (Homo sapiens, UniProt P03956); test: Fluorometric hydrolysis of synthetic Mca/Lys(Dnp) substrates by MMP-1; format: biochemical; set-up: made in house; host or cells: native secreted protein purified from culture medium of human rheumatoid synovial cells; settings: for site of hydrolysis by MMP-1: Edman degradation analysis after 36-72 hour treatment of substrate with MMP
T3 sequence (P03956 100-469): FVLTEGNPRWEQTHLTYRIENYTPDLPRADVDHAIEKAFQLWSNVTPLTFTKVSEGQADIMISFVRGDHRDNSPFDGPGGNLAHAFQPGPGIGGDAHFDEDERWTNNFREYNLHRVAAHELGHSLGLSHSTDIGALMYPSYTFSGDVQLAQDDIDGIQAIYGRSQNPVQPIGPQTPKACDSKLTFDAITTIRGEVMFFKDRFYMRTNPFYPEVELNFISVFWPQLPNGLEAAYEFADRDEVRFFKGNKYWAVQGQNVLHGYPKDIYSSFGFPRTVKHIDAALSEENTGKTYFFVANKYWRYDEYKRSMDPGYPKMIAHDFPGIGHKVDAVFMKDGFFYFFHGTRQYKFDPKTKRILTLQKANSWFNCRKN
Text: as §1, §2

[6] = biological target: T1, MMP-3; test: Fluorometric hydrolysis of synthetic Mca/Lys(Dnp) substrates by MMP-3; format: biochemical; set-up: made in house; host or cells: native secreted protein purified from culture medium of human rheumatoid synovial cells; settings: Edman degradation analysis after 36-72 hour treatment of substrate with MMP
Target sequence in this assay (P08254 100-477): as the sequence (P08254 100-477, species assumed) above

[7] = biological target: T2, MMP-9; test: Fluorometric hydrolysis of synthetic Mca/Lys(Dnp) substrates by MMP-9; format: biochemical; set-up: made in house; host or cells: native secreted protein purified from culture medium of HT-1080 cells; settings: Edman degradation analysis after 36-72 hour treatment of substrate with MMP
[8] = biological target: T4, MMP-2 (Homo sapiens, UniProt P08253); test: Fluorometric hydrolysis of synthetic Mca/Lys(Dnp) substrates by MMP-2; format: biochemical; set-up: made in house; host or cells: native secreted protein purified from culture medium of human rheumatoid synovial cells; settings: for site of hydrolysis by MMP-2: Edman degradation analysis after 36-72 hour treatment of substrate with MMP
T4 sequence (P08253 110-660): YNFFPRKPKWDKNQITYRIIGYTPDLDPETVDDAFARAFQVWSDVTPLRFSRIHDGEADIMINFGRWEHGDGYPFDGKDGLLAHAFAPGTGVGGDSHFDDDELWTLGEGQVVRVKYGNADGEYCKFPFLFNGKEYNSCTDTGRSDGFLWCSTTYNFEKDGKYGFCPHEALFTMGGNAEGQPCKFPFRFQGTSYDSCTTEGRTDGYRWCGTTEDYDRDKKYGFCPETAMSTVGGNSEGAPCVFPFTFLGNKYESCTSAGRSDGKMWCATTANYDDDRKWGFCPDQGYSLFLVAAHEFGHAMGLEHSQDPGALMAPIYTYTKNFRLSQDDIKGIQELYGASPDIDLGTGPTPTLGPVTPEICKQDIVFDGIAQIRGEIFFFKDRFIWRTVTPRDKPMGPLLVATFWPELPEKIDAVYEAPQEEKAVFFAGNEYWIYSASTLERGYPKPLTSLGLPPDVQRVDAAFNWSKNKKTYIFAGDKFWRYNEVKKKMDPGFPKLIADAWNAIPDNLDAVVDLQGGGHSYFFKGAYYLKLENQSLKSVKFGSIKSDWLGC
Text: as §1, §2

T2 sequence (P14780 107-707 limits assumed): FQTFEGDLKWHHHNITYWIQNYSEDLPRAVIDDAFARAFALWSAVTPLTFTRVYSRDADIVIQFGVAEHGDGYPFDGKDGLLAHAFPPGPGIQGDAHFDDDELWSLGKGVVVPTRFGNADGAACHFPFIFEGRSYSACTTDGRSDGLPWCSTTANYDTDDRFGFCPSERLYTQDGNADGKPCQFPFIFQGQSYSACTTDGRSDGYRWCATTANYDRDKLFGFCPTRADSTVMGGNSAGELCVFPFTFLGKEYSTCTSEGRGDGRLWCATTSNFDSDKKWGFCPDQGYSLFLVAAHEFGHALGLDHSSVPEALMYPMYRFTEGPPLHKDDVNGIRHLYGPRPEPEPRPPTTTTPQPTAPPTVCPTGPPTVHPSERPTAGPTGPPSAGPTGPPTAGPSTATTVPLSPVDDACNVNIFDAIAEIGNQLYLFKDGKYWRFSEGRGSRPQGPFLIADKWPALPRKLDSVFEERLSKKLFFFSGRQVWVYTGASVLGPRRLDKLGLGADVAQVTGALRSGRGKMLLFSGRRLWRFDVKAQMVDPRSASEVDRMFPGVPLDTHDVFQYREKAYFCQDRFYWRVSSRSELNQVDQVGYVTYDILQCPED

## Human α2 -macroglobulin: protein substrate of MMP-3; cleavage sites Gly679-Leu680 and Phe684-Tyr685
[1]; determined at 25° C.
  kcat /Kb: 56,000 S^-1 M^-1

## Human aggrecan: extracellular matrix protein cleaved by MMP-3 at Asn341-Phe342
[1]; determined at 22° C.
  kcat /Kb: 4,000 S^-1 M^-1

## Dnp--Pro--Tyr--Ala"--"Tyr--Trp--Met--Arg--NH3 (Dnp-PYAYWMR-NH2; not fully specified; printed as Dnp—Pro—Tyr—Ala"—"Tyr—Trp—Met—Arg—NH$_3$) [literature fluorogenic substrate (Netzel-Arnett et al., 1991)]
[2]; MMP-3, assay at 23° C.
  kcat: 0.24 S^-1
[2]; MMP-3, assay at 30° C.
  Km: 100 µM
[2]; MMP-3, assay at 37° C.
  kcat Km: 2,400 S^-1 M^-1

## α1 -Protease inhibitor: protease inhibitor cleaved by MMP-3 at Pro357-Met358
[1]; determined at 37° C.
  kcat /Kb: 5,400 S^-1 M^-1

## Dnp-Arg-Pro-Lys-Pro-Leu-Ala-Nva-Trp-NH2 (Dnp-RPKPLA[Nva]W-NH2; SMILES CCC[C@H](NC(=O)[C@H](C)NC(=O)[C@H](CC(C)C)NC(=O)[C@@H]1CCCN1C(=O)[C@H](CCCCN)NC(=O)[C@@H]1CCCN1C(=O)[C@H](CCCNC(=N)N)Nc1ccc([N+](=O)[O-])cc1[N+](=O)[O-])C(=O)N[C@@H](Cc1c[nH]c2ccccc12)C(N)=O) [literature fluorogenic MMP-3 substrate (Niedzwiecki et al., 1992)]
[2]; MMP-3, assay at 25° C.
  kcat Km: 45,000 S^-1 M^-1

## Substance P: 11 residue peptide substrate of MMP-3, cleaved at Gln6-Phe7 [reference compound]
[1]; determined at 37° C.
  kcat /Kb: 1,790 S^-1 M^-1

## Antithrombin III
[1]; determined at 37° C.
  kcat /Kb: < 50 S^-1 M^-1

## Gly--Pro--Gln--Gly"--"Ile--Ala--Met--Gln (chain 1 GPQG; chain 2 IAMQ; printed: Gly--Pro--Gln--Gly; printed: Ile--Ala--Met--Gln) [literature synthetic MMP-3 substrate (Fields, 1988)]
[2]; MMP-3, assay at 30° C.
  Km: 5600 µM
  kcat: 0.69 S^-1
  kcat Km: 120 S^-1 M^-1

## CCC[C@H](NC(=O)[C@H](C)NC(=O)[C@H](Cc1ccc(O)cc1)NC(=O)[C@@H]1CCCN1C(=O)[C@H](CCCCN)NC(=O)[C@@H]1CCCN1C(=O)[C@H](CCCNC(=N)N)NC(=O)Cc1cc(=O)oc2cc(OC)ccc12)C(=O)N[C@@H](Cc1c[nH]c2ccccc12)C(=O)N[C@@H](CCSC)C(=O)N[C@@H](CCCCNc1ccc([N+](=O)[O-])cc1[N+](=O)[O-])C(N)=O [NFF-2, Mca-Arg-Pro-Lys-Pro-Tyr-Ala-Nva-Trp-Met-Lys(Dnp)-NH2] (Mca-RPKPYA[Nva]WMK(Dnp)-NH2)
[3]
  hydrolysis by MMP-9: most rapidly hydrolyzed substrate for MMP-9 reported to date
[3]; rate relative to NFF-1
  hydrolyzed more rapidly than NFF-1 by MMP-9: 14 times
[4]
  kcat /Km: 59,400 S^-1 M^-1
[4]; rate relative to NFF-1
  hydrolyzed more rapidly than NFF-1 by MMP-3: 6 times
[4]; selectivity MMP-3 over MMP-1
  hydrolyzed more rapidly by MMP-3 than MMP-1: 60 times
[5]
  site of hydrolysis by MMP-1: Ala--Nva bond
[5]; relative to NFF-1
  MMP-1 activity reduced compared to NFF-1: ~ 50%
[6]
  site of hydrolysis by MMP-3: Ala--Nva bond
[7]
  site of hydrolysis by MMP-9: Ala--Nva bond
[8]
  site of hydrolysis by MMP-2: Ala--Nva bond
[8]; rate relative to NFF-1
  hydrolyzed more rapidly than NFF-1 by MMP-2: 5 times

## COc1ccc2c(CC(=O)N3CCC[C@H]3C(=O)N[C@@H](CCCCN)C(=O)N3CCC[C@H]3C(=O)N[C@@H](CCC(N)=O)C(=O)N[C@@H](CCC(N)=O)C(=O)N[C@@H](Cc3ccccc3)C(=O)N[C@@H](Cc3ccccc3)C(=O)NCC(=O)N[C@@H](CC(C)C)C(=O)N[C@@H](CCCCNc3ccc([N+](=O)[O-])cc3[N+](=O)[O-])C(=O)NCC(=O)O)cc(=O)oc2c1 [NFF-1, Mca-Pro-Lys-Pro-Gln-Gln-Phe-Phe-Gly-Leu-Lys(Dnp)-Gly] (Mca-PKPQQFFGLK(Dnp)G-OH)
[3]; MMP-9 compared with MMP-3
  less activity of MMP-9 than MMP-3 towards the substrate: 60%
[4]
  kcat /Km: 10,900 S^-1 M^-1
[4]; MMP-3 and MMP-2
  hydrolysis by MMP-3 compared with MMP-2: equally well
[5]; Edman degradation analysis after 36-72 hour treatment
  ratio of hydrolysis at the Gln-Phe and Gly-Leu bonds by MMP-1: 3.2
[5]
  site of hydrolysis by MMP-1: Gln--Phe and Gly--Leu bonds
[5]; MMP-1 compared with MMP-3
  less activity of MMP-1 than MMP-3 towards the substrate: 75%
[6]
  site of hydrolysis by MMP-3: Gln--Phe bond
[7]
  site of hydrolysis by MMP-9: Gly--Leu bond
[8]
  site of hydrolysis by MMP-2: Gln--Phe bond
